# Values quoted from earlier work in patent publication US20250091981A1, “PROCESS FOR THE PURIFICATION OF 5-AMINOSALICYLIC ACID” (CHEMI S.P.A., priority 2022, published 2025).
# Columns and labels:
# [1] = value reported in the literature
# [2] = established in the guidelines
isoelectric pH [1],Structure (SMILES),maximum daily intake limit [2]
3.7,"Nc1ccc(O)c(C(=O)O)c1 [Example 5-ASA, 5-Amino salicylic acid]",
,"CCN(CC)N=O [NDEA, N,N-diethyl-nitrosamine]",26.5 ng
